Values quoted from earlier work, collected in paper PMC12375981 (Protein Science : A Publication of the Protein Society, 2025).
Marks after values point to notes of the source that are not given here.

Key:
WT 3CL^pro = WT 3CL^pro (Severe acute respiratory syndrome coronavirus 2, UniProt P0DTD1); settings: cited from earlier work
SARS‐CoV‐2 3CL^pro = settings: cited from earlier work

## COc1cccc2[nH]c(C(=O)N[C@@H](CC(C)C)C(=O)N[C@@H](C[C@@H]3CCNC3=O)C(=O)COP(=O)(O)O)cc12 [lufotrelvir]
WT 3CL^pro
  K D ^app: 17 ± 2 ^b nM

## CC(C)(C)[C@H](NC(=O)C(F)(F)F)C(=O)N1C[C@H]2[C@@H]([C@H]1C(=O)N[C@H](C#N)C[C@@H]1CCNC1=O)C2(C)C [nirmatrelvir]
SARS‐CoV‐2 3CL^pro
  increase of the strength of dimerization: about seven
